Experimental findings from US10266489B2, “Pyrrolic amide compound and preparation method and application thereof” (HitGen LTD, priority 2014, dated 2019) are described below.

Test [1] addresses T1, histone deacetylase 6 (HDAC6) (Homo sapiens, UniProt Q9UBN7).
T1 construct: purchased BPS Bioscience 50076
T1 sequence (Q9UBN7 1-1215): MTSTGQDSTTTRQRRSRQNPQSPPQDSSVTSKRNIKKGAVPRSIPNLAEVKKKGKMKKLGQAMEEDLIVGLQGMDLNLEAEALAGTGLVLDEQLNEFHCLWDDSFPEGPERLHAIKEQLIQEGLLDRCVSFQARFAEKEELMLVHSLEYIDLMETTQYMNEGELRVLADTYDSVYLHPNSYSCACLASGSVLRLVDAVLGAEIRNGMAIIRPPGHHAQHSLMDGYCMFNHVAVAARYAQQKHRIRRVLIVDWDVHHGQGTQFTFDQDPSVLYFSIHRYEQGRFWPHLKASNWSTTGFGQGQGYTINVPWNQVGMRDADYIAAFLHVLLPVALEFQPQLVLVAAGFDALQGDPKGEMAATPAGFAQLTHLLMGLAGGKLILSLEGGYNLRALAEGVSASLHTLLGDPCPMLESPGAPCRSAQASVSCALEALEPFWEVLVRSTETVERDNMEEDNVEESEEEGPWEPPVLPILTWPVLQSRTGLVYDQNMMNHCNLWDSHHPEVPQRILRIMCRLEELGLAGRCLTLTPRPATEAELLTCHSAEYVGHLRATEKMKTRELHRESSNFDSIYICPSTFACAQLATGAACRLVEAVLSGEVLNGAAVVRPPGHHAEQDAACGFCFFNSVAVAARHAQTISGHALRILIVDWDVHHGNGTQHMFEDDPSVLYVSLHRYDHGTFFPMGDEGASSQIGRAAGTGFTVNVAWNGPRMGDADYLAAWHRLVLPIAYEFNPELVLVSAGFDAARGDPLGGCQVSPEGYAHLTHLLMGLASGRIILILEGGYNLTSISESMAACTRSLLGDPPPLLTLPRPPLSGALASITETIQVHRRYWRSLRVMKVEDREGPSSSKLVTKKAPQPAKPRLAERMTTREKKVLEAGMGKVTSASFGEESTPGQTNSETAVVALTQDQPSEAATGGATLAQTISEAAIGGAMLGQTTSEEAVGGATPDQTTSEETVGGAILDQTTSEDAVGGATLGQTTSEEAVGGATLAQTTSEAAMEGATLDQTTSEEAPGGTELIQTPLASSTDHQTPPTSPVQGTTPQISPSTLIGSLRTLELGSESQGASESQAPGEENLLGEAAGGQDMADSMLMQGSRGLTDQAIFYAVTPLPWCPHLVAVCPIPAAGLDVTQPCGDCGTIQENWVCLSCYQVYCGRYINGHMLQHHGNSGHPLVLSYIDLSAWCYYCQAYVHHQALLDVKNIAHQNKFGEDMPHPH
The test is described as follows: Detection of enzyme viability of histone deacetylase 6 (fluorogenic substrate deacetylation). The format is biochemical. Particulars: 0.35 ng/μL HDAC 6, 20 μM substrate, 37° C. From the text:
(§1) HDAC inhibitory viabilities of the compounds in the present invention are detected in detection of substrate deacetylation.
A: Detection of enzyme viability of histone deacetylase 6 (#50076, BPS Bioscience):
Acetyl of HDAC 6 on a substrate is removed, so that the substrate is activated and can be affected by a subsequently added developing solution, and fluorophore is released. The size of a fluorescence signal reflects the viability of the HDAC 6. An IC50 detection method of the enzyme is disclosed in Chuping Xu, Elisabetta Soragni improved Histone Deacetylase Inhibitors as Therapeutics for the Neurdegenerative DiseaseEriedreich's Ataxia: A New Synthetic Route. A total reaction system (100 μL/well) contains 0.35 ng/μL of HDAC 6, 20 μM of substrate and compounds of different concentrations. The fluorescence signal is measured within 30 minutes after incubation at a temperature of 37° C., inhibitory effects of the compounds are determined from the obtained data and mapped with the compound concentrations to obtain a concentration response curve, and the IC50 value is fitted according to a four-parameter model.
The compounds 1-19 prepared in the embodiments are subjected to detection of enzyme viability of histone deacetylase 6 (i.e., HDAC6) according to the method above. Test results are shown in Table 2, wherein the measured IC50 values of the compounds are classified as specified, as shown in Table 2: […]

The target in test [2] is T2, histone deacetylase 3 (HDAC3) (Homo sapiens, UniProt O15379).
T2 construct: purchased BPS Bioscience 50003
Nature of the test: Detection of enzyme viability of histone deacetylase 3 (fluorogenic substrate deacetylation). The format is biochemical. The following applies: 0.16 ng/μL HDAC 3, 10 μM substrate.
Source text: as §1
B: Detection of enzyme viability of histone deacetylase 3 (#50003, BPS Bioscience):
Acetyl of HDAC 3 on a substrate is removed, so that the substrate is activated and can be affected by the developing solution, and fluorophore is released. The size of a fluorescence signal reflects the viability of the HDAC 3. An IC50 detection method of the enzyme is disclosed in Chuping Xu, Elisabetta Soraeni Improved Histone Deacetylase Inhibitors as Therapeutics for the Neurdegenerative DiseaseFriedreich's Ataxia: A New Synthetic Route. A total reaction system (100 μL/well) contains 0.16 ng/μL of HDAC 3, 10 μM of substrate and compounds of different concentrations. The fluorescence signal is detected at Ex/Em=360/460 on line, inhibitory effects of the compounds are determined from the obtained data and mapped with the compound concentrations to obtain a concentration response curve, and the IC50 value is fitted according to a four-parameter model.
The compounds 1-19 prepared in the embodiments are subjected to detection of enzyme viability of histone deacetylase 3 (i.e., HDAC3) according to the method above. Test results are shown in Table 2, wherein the measured IC50 values of the compounds are classified as specified, as shown in Table 2: […]

In a further test the test system is HepG2 cells. Nature of the test: Determination of cell growth inhibition, CCK-8, HepG2. The format is cell-based. The following applies: Homo sapiens, HepG2 hepatoma cells, 72 hours, highest measured IC50 of single or multiple operations. The source says: (§2) Test example 2 Cell determination-determination of cell growth inhibition Materials and reagents HepG2 cell strains, Hep3B cell strains, Huh7 cell strains and Li7 cell strains are purchased from Shanghai Institutes for Biological Sciences of Chinese Academy of Sciences; DMEM high glucose media and MEM media are purchased from Hyclone; fetal calf serum is purchased from Gibco Company; trypsin is purchased from Invitrogen Shanghai; CCK-8 kits are purchased from Beyotime Institute of Biotechnology; and other consumables such as cell-culture dishes and the like are purchased from Corning China. […]
(§3) comprising the steps: digesting HepG2 cells, Hep3B Huh7 cells and Li7 cells in logarithmic phases by using the trypsin; after counting the cells by taking uniform cell suspension, adjusting cell density to 1500 cells/pore by using a culture medium containing 10% of serum, and re-inoculating into a 96-pore cell culture plate, wherein the culture volume is 200 μL; incubating in a 5% CO2 incubator at a temperature of 37° C.; and culturing for 24 hours for experiments. […]
(§4) comprising the steps: taking the cells cultured for 24 hours from the incubator, sucking culture solution in the pore plate, adding 200 μL of compound solution prepared by using a culture medium containing 10% of the fetal calf serum into each pore, enabling five pores of each concentration to be parallel, setting DMSO at negative control, and incubating in the 5% CO2 incubator at a temperature of 37° C. for 72 hours for performing CCK-8 detection. […]
(§5) comprising the steps: taking a serum-free medium and a CCK-8 solution, and preparing a CCK-8 working solution according to a ratio of 10:1 (the process needs to be protected from light); taking the cells cultured for 72 hours from the incubator, sucking culture solution in the pore plate, adding 120 μL of the CCK-8 working solution into each pore, adding 120 μL of the CCK-8 working solution into a cell-free pore plate to serve as blank control, and incubating in the 5% CO2 incubator at a temperature of 37° C. for one hour (the process needs to be protected from light ); and […]
(§6) taking the pore plate from the incubator, sucking 100 μL of solution from each pore into a new 96-pore plate, and reading absorbancy at 450 nm (the process needs to he protected from light).
(§7) Tx: absorbancy measured in CCK-8 within 72 hours after compound effect
(§8) C: absorbancy measured m CCK-8 within 72 hours after culturing in negative control pores B: absorbancy measured CCK-8 in blank control pores
(§9) The compounds 1-19 prepared in the embodiments are operated in the above determination, and test results are shown in Table 3, wherein the highest measured IC50 values of the various compounds during single or multiple operations are classified as specified, as shown in Table 3: […]

The test system of a further test is Hep3B cells. The test is described as follows: Determination of cell growth inhibition, CCK-8, Hep3B. Type of test: cell-based. Particulars: Homo sapiens, Hep3B hepatoma cells, 72 hours, highest measured IC50 of single or multiple operations.
Source text: as §2, §3, §4, §5, §6, §7, §8, §9

The next test relates to Huh7 cells. The test is described as follows: Determination of cell growth inhibition, CCK-8, Huh-7. The following applies: Homo sapiens, Huh-7 hepatoma cells, 72 hours, highest measured IC50 of single or multiple operations. Type of test: cell-based.
Source text: as §2, §3, §4, §5, §6, §7, §8, §9

The test system of another test is Li7 cells. The test is described as follows: Determination of cell growth inhibition, CCK-8, Li-7. The format is cell-based. Particulars: Li-7 hepatoma cells, 72 hours, highest measured IC50 of single or multiple operations.
Source text: as §2, §3, §4, §5, §6, §7, §8, §9

As a reminder, the IC50 is the point on the concentration scale where inhibition reaches its midpoint. Lower therefore signals greater potency in that assay.

A value given as a limit tells only on which side of the number the result lay.

T2 sequence (O15379 whole entry): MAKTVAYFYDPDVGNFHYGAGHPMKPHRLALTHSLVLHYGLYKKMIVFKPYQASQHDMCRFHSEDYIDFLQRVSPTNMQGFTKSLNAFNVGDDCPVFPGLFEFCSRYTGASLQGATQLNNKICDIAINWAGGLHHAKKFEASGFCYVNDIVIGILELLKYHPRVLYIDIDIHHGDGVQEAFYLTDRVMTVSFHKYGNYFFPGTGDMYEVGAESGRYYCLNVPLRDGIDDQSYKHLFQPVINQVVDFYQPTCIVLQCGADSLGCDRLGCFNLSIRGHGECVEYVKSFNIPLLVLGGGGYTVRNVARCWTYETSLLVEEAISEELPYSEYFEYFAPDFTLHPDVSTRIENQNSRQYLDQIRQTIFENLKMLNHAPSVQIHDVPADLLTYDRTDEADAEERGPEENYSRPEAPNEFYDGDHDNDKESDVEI
T2 sequence (Q9Y618 395-489 partner limits assumed): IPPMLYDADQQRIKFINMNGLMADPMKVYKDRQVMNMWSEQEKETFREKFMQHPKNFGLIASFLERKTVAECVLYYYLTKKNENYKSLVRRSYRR

Regarding `O=C(NO)C1=CCN(S(=O)(=O)c2ccc(Oc3ccccc3)cc2)C1` [Compound 3], the IC50 in test [1] is 0.1 to 0.3 µM; in test [2], 0.1 to 1 µM; in the test on HepG2 cells, over 10 µM; in the test on Hep3B cells, over 10 µM; in the test with Huh7 cells it was over 10 µM; in the test with Li7 cells it was over 10 µM.
With `O=C(NO)C1=CCN(S(=O)(=O)c2ccccc2)C1` [Compound 2, N-hydroxy-1-(benzene-sulfonyl)-2,5-dihydro-1H-pyrrole-3-formamide], the IC50 in test [1] is under 0.1 µM; in test [2] it was over 1 µM; with HepG2 cells, over 10 µM; in the test with Hep3B cells, over 10 µM; in the test with Huh7 cells it was over 10 µM; in the test on Li7 cells it was over 10 µM.
Take `CC(=O)Nc1ccc(S(=O)(=O)N2CC=C(C(=O)NO)C2)cc1Cl` [Compound 4, N-hydroxy-1-((4-acetamido-3-chlorphenyl)sulfonyl)2,5-dihydro-1H-pyrro1e-3-formamide]: the IC50 is under 0.1 µM in test [1]; 0.1 to 1 µM in test [2]; over 10 µM in the test with HepG2 cells; over 10 µM in the test on Hep3B cells; over 10 µM in the test with Huh7 cells; over 10 µM in the test with Li7 cells.
Take `O=C(NO)C1=CCN(S(=O)(=O)c2ccc3c(c2)OCCO3)C1` [Compound 5, N-hydroxy-1-((2,3-dihydro-benzo[b] [1,4]dioxin)-6-sulfonyl)2,5-dihydro-1H-pyrrole-3-formamide]: the IC50 in test [1] is under 0.1 µM; in test [2] it was over 1 µM; in the test on HepG2 cells, over 10 µM; in the test with Hep3B cells, over 10 µM; in the test with Huh7 cells it was over 10 µM; with Li7 cells, over 10 µM.
Take `CC(C)(C)c1ccc(S(=O)(=O)N2CC=C(C(=O)NO)C2)cc1` [Compound 8]: the IC50 was under 0.1 µM in test [1]; 0.1 to 1 µM in test [2]; over 10 µM in the test on HepG2 cells; over 10 µM in the test on Hep3B cells; over 10 µM in the test on Huh7 cells; over 10 µM in the test with Li7 cells.
As for `O=C(NO)C1=CCN(S(=O)(=O)c2ccc3c(c2)OCC3)C1` [Compound 6, N-hydroxy-1-((2,3-dihydro-benzofuran)-6-sulfonyl)2,5-dihydro-1H-pyrrole-3-formamide], the IC50 in test [1] is under 0.1 µM; in test [2] it was 0.1 to 1 µM; in the test on HepG2 cells, over 10 µM; in the test with Hep3B cells, over 10 µM; with Huh7 cells, over 10 µM; in the test on Li7 cells it was over 10 µM.
